The data set is described as follows: Aqueous solubility. The class given is physicochemical. The note with it: resisted cocrystallization attempts.

In the case of `Cn1cc(-c2[nH]c3cc(NC(=O)[C@H](N)C4CCCCC4)cc4c3c2C=NNC4=O)cn1` [PF-477736], the aqueous solubility result is reported as “low aqueous solubility”.

These data come from publication PMC7771325 (Journal of medicinal chemistry, 2020).
